Here are results for 3 compounds from patent publication US7297696B2, “Antagonists of MCP-1 function and methods of use thereof” (Telik, Inc., priority 2001, dated 2007).

Format in all cases: in vivo
Experiment [1] has as its system apoE-deficient mice. As to the kind of experiment: Apolipoprotein E-deficient mouse model of atherosclerosis. The note with it: 50 mg/kg as food admixture for 8 weeks, high-fat diet; percent of total cross-sectional wall area. How it is done:
Apolipoprotein E (apoE) is a component of several plasma lipoproteins, including chylomicrons, VLDL, and HDL. Receptor-mediated catabolism of these lipoprotein particles is mediated through the interaction of apoE with the LDL receptor (LDLR) or with LDLR-related protein (LRP). […] The efficacy of the compounds of the present invention was also evaluated using this animal model.
Male, 4 week-old apoE-deficient mice were fed on high-fat diet (15% fat, 1.25% cholesterol). The test compound was administered as food admixture for 8 weeks. At 12 weeks old, the mice were fasted for 4 hours and then sacrificed under ether anesthesia. […]
To determine cross-sectional lesion areas, the hearts were embedded in OCT compound and sectioned at 10 μm using cryostat. The sections were stained with oil red O. Each section of the aortic valve was evaluated for oil red O staining by capturing images directly from a RGB camera attached to a light microscope; image analysis was performed with the IPAP-WIN software (Sumika Tekno, Japan). Five sections were examined for each animal, and the sum of the lesion areas was calculated and expressed as the percent of the total cross-sectional wall area. Total cholesterol was determined with a Determiner assay kit (Kyowa Medex, Japan).

Experiment [2] concerns ICR male mice. The experiment is described as follows: Thioglycollate-induced inflammation model. The conditions noted are these: peritoneal cavity, 96 h; 10 mg/kg subcutaneous at 0 h, 3 h and 16 hours. How it is done:
3% Brewer's thioglycollate broth (Difco, Detroit, Mich.) was injected into the petitoneal cavity of ICR male mice, followed by subcutaneous administration of the test compounds at the same dose after 0 h, 3 h and 16 hours. After 96 h, the number of total elicited cells and MOMA2-positive cells in the peritoneal cavity was analyzed using an EPICS XL Beckman Coulter.

The test system of experiment [3] is male ICR mice. As to the kind of experiment: Caerulein-induced pancreatitis. The note with it: 20 mg/kg orally after caerulein injection, then at 3 h and 6 h; blood after 15 h. How it is done: Caerulein was injected intraperitoneally to male ICR mice every 1 h for 6 h. The test compound was given orally immediately after the caerulein injection, and then again at 3 h and 6 h. After 15 h, the mice were sacrificed and their blood was collected and analyzed for serum amylase activity as a marker of pancreatitis.

In the case of `O=C(NC(=O)c1ccc2c(c1)OCCO2)Nc1ccc(C(=O)[O-])cc1.[Na+]` [Compound 59, Sodium 4-{[(2H,3H-benzo[3,4-e]1,4-dioxin-6-ylcarbonylamino)carbonyl]amino}benzoate], the “% Atherosclerotic Lesion (mean ± SD)” value in experiment [1] was determined as 21.08 ± 6.86%. Also, in experiment [2], the “MOMA2-positive Cells” value is 13.2 ± 1.4 ×10^6 and the “Total Cells” value is 17.3 ± 1.7 ×10^6.
As to `O=C(O)COc1ccc(NC(=O)NC(=O)c2ccc3c(c2)OCCO3)cc1Cl` [Compound 55, 2-(4-{[(2H,3H-Benzo[e]1,4-dioxan-6-ylcarbonylamino)carbonyl]amino}-2-chlorophenoxy)acetic acid], the “% Atherosclerotic Lesion (mean ± SD)” value in experiment [1] is listed as 17.80 ± 3.43 %. Besides, in experiment [2], the “MOMA2-positive Cells” value is recorded as 10.1 ± 1.5 ×10^6 and the “Total Cells” value is reported as 14.1 ± 1.6 ×10^6.
Take `O=C(NC(=O)c1ccc2c(c1)OCCO2)Nc1ccc(C(=O)[O-])c(Cl)c1.[Na+]` [Compound 57, Sodium 4-{[(2H,3H-benzo[e]1,4-dioxan-6-ylcarbonylamino)carbonyl]amino}-2-chlorobenzoate]: the “Serum Amylase Level (U, Caraway, mean ± SD)” value in experiment [3] is given as 551 ± 157 U, Caraway.
